Experiments:
[1] = molecular target: CDK4/Cyclin D1 (Homo sapiens (Human), UniProt P11802); assay: CDK4/CyclinD1 enzymatic activity assay (TR-FRET); type: biochemical; settings: ATP 2 mM, read-out: CDK4_D1 IC50
Experimental: CDK4/CyclinD1 Enzymatic Activity Assay
The inhibitory activity of compounds was evaluated in vitro using TR-FRET assay with white 384-well low volume microplate (Greiner Bio-One). CDK4/Cyclin D1 catalyzed phosphorylation of peptide in the presence and absence of compounds was measured. IC50 determination. Recombinant protein complex CDK4/Cyclin D1, expressed from insect cell, was purchased from ProQinase. Testing compounds were dissolved in DMSO at 0.1 mM and tested in 9-dose IC50 mode. The reaction mixture was prepared by mixing CDK4/CyclinD1 (1 nM final), ULight-4E-BP1 (100 nM final, Perkinelmer, TRF0128-D), and ATP (2 mM final) in assay buffer (20 mM of HEPES pH 7.4, 1 mM of EGTA, 0.05% BSA, 0.005% Tween 20, and 1 mM TCEP). The compound of interest in DMSO was added to each well in 3-fold serial dilution by dispenser (TECAN D300E). After 20 minutes preincubation at room temperature, MgCl2 (10 mM final) was added to initiate the reaction. Following a 60 minutes incubation at 37° C., the reaction was stopped by addition of 2 μL of quenching buffer consisting of Lance detection buffer (Perkinelmer CR97-100C), 2 nM LANCE Ultra Europium-anti-P-4E-BP1 (Perkinelmer, TRF0216-D), 10 mM EDTA, and incubate at room temperature for additional 60 minutes in dark. The reaction signal was measured by Envision multimode plate reader (PerkinElmer, 2102-0010). IC50 values were determined by fitting the data to the standard 4 parameters with Hill Slope using GraphPad Prism software.

[2] = tested on: MCF7 adenocarcinoma cell line; assay: Cell proliferation studies in MCF7 cells (ATP-Lite, 10 days); type: cell-based; settings: Homo sapiens, 240 h, read-out: PROLIFERATION_CTG_MCF7 IC50
Experimental: Cell Proliferation Studies in MCF7 Cells
Cell proliferation studies were conducted in MCF7 adenocarcinoma cell line. Cells were maintained in DMEM (Coming, Catalog #: 10-013-CV) supplemented with 10% v/v FBS (Gibco, Catalog #: 26140-079), 1% v/v Penicillin Streptomycin (Gibco, Catalog #15140-122) Cells were seeded in 384-well plates at a density of 100 or 200 cells/well. Compounds dissolved in DMSO were plated in quadruplicate using a digital dispenser (D300E, Tecan) and tested on a 9-point 3-fold serial dilution. Cells were incubated for 10 days in a 37° C. active humidified incubator at 5% CO2. A media exchange and second compound addition were performed on day 5. Cell viability was measured using the ATP-Lite 1-Step Luminescence reagent (Perkin Elmer, Catalog #: 6016731) as per manufacturer's instructions. Luminescence signal was measured with a multimode plate reader (Envision 2105, Perkin Elmer). Raw data files were imported to Dotmatics Screening Ultra for IC50 analysis. Luminescence values were normalized to both background and DMSO controls to obtain a percentage of viable cells relative to DMSO vehicle control.

Chain of CDK4/Cyclin D1 (P11802 whole entry): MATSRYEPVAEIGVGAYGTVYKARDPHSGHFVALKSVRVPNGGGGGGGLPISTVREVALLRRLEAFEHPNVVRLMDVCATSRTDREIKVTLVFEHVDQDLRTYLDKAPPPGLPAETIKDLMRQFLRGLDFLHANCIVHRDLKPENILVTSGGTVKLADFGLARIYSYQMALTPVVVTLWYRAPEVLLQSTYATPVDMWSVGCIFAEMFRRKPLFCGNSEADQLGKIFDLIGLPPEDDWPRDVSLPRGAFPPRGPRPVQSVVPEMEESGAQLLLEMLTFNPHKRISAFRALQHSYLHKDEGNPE
Chain of CDK4/Cyclin D1 (P24385 whole entry partner): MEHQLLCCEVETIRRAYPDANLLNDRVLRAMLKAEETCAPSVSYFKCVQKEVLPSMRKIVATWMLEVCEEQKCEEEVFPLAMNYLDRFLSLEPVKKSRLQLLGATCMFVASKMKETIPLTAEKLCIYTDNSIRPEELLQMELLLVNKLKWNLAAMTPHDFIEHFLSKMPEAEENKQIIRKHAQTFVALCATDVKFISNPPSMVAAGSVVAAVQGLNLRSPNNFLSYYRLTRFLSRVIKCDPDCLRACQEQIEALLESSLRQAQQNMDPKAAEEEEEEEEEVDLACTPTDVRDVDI

IC50 [1]	IC50 [2]	Structure (SMILES)
≤ 20 nM	200 to 2000 nM	Cc1c(-c2nc(Nc3ccc(C4CC[C@H]5CN(C)C(=O)CN45)cn3)ncc2F)sc2c1nc(C)n2C(C)C (single isomer, unassigned) [Example 118]
20 to 200 nM	20 to 200 nM	CCN1CCC(c2ccc(Nc3ncc(F)c(-c4sc5c(nc(C)n5C5CCCC5)c4C)n3)nc2)CC1 [Example 5, 4-(3-Cyclopentyl-2,6-dimethyl-3H-thieno[2,3-d]imidazol-5-yl)-N-(5-(1-ethylpiperidin-4-yl)pyridin-2-yl)-5-fluoro-pyrimidin-2-amine]
≤ 20 nM	20 to 200 nM	Cc1c(-c2nc(Nc3ccc(C4CCN(C)CC4)cn3)ncc2F)sc2c1nc(C)n2C1CCCC1 [Example 6, 4-(3-Cyclopentyl-2,6-dimethyl-3H-thieno[2,3-d]imidazol-5-yl)-5-fluoro-N-(5-(1-methylpiperidin-4-yl)pyridin-2-yl)pyrimidin-2-amine]
≤ 20 nM	20 to 200 nM	Cc1c(-c2nc(Nc3ccc(N4CCN(C)CC4)cn3)ncc2F)sc2c1nc(C)n2C1CCCC1 [Example 7, 4-(3-Cyclopentyl-2,6-dimethyl-3H-thieno[2,3-d]imidazol-5-yl)-5-fluoro-N-(5-(4-methyl-piperazin-1-yl)pyridin-2-yl)pyrimidin-2-amine]
≤ 20 nM	200 to 2000 nM	CCN1CCN(Cc2ccc(Nc3ncc(F)c(-c4sc5c(nc(C)n5C5CCC5)c4C)n3)nc2)CC1 [Example 10, 4-(3-Cyclobutyl-2,6-dimethylthieno[2,3-d]imidazol-5-yl)-N-[5-[(4-ethylpiperazin-1-yl)methyl]pyridin-2-yl]-5-fluoropyrimidin-2-amine]
20 to 200 nM	200 to 2000 nM	Cc1c(-c2nc(Nc3ccc(N4CCC(F)(F)C4)cn3)ncc2F)sc2c1nc(C)n2C1CCCC1 [Example 11, 4-(3-Cyclopentyl-2,6-dimethyl-3H-thieno[2,3-d]imidazol-5-yl)-N-(5-(3,3-difluoropyrrolidin-1-yl)pyridin-2-yl)-5-fluoro-pyrimidin-2-amine]
200 to 2000 nM	–	CCN1CCN(Cc2ccc(Nc3ncc(F)c(-c4sc5c(nc(C)n5C5CCCC5)c4C)n3)nc2)CC1 [Example 12, 4-(3-Cyclopentyl-2,6-dimethyl-3H-thieno[2,3-d]imidazol-5-yl)-N-(5-((4-ethylpiperazin-1-yl)methyl)pyridin-2-yl)-5-fluoropyrimidin-2-amine]
≤ 20 nM	–	CCN1CC2(C1)CN(c1ccc(Nc3ncc(F)c(-c4cc5nccc(C6CCCC6)c5s4)n3)nc1)C2 [Example 15, 4-(7-Cyclopentylthieno[3,2-b]pyridin-2-yl)-N-[5-(6-ethyl-2,6-diazaspiro[3.3]heptan-2-yl)pyridin-2-yl]-5-fluoropyrimidin-2-amine]
≤ 20 nM	–	Cc1c(-c2nc(Nc3ccc(N4CCNCC4)cn3)ncc2F)sc2c(C3CCCC3)ccnc12 [Example 35, 4-(7-Cyclopentyl-3-methylthieno[3,2-b]pyridin-2-yl)-5-fluoro-N-(5-(piperazin-1-yl)pyridin-2-yl)pyrimidin-2-amine]
20 to 200 nM	–	Cc1nc2cc(-c3nc(Nc4ccc(CN5CCC(C(=O)N(C)C)C5)cn4)ncc3F)sc2n1C(C)C (stereo not drawn) [Example 65, 1-[[6-[[5-Fluoro-4-(2-methyl-3-propan-2-ylthieno[2,3-d]imidazol-5-yl)pyrimidin-2-yl]amino]pyridin-3-yl]methyl]-N,N-dimethylpyrrolidine-3-carboxamide]
≤ 20 nM	–	Cc1c(-c2nc(Nc3ccc(N4CC5(CN(C)CC5(F)F)C4)cn3)ncc2F)sc2c1nc(C)n2C(C)C [Example 70, N-[5-(5,5-Difluoro-7-methyl-2,7-diazaspiro[3.4]octan-2-yl)pyridin-2-yl]-4-(2,6-dimethyl-3-propan-2-ylthieno[2,3-d]imidazol-5-yl)-5-fluoropyrimidin-2-amine]
≤ 20 nM	–	Cc1c(-c2nc(Nc3ccc(N4CCC5(CCN(C)C5)C4)cn3)ncc2F)sc2c(C(C)C)cn(C)c(=O)c12 (stereo not drawn) [Example 76, 2-(5-Fluoro-2-((5-(7-methyl-2,7-diazaspiro[4.4]nonan-2-yl)pyridin-2-yl)amino)pyrimidin-4-yl)-7-isopropyl-3,5-dimethylthieno[3,2-c]pyridin-4(5H)-one]
20 to 200 nM	–	CCN1CC2(C1)CN(c1ccc(Nc3ncc(F)c(-c4sc5c(C6CC6)n(C)nc5c4C)n3)nc1)C2 [Example 101, 4-(3-Cyclopropyl-2,6-dimethyl-2H-thieno[3,2-c]pyrazol-5-yl)-N-(5-(6-ethyl-2,6-diazaspiro[3.3]heptan-2-yl)pyridin-2-yl)-5-fluoropyrimidin-2-amine]
200 to 2000 nM	–	CCN1CCN(c2ccc(Nc3ncc(F)c(-c4sc5c(C(C)=O)n(C)nc5c4C)n3)nc2)CC1 [Example 103, 1-(5-(2-((5-(4-ethylpiperazin-1-yl)pyridin-2-yl)amino)-5-fluoropyrimidin-4-yl)-2,6-dimethyl-2H-thieno[3,2-c]pyrazol-3-yl)ethan-1-one]
20 to 200 nM	–	CCN1CCN(c2ccc(Nc3ncc(F)c(-c4sc5c(C(C)O)n(C)nc5c4C)n3)nc2)CC1 (stereo not drawn) [Example 104, 1-(5-(2-((5-(4-Ethylpiperazin-1-yl)pyridin-2-yl)amino)-5-fluoropyrimidin-4-yl)-2,6-dimethyl-2H-thieno[3,2-c]pyrazol-3-yl)ethan-1-ol]
200 to 2000 nM	–	CCN1CCN(c2ccc(Nc3ncc(F)c(-c4sc5c(C(C)C)nn(C)c5c4C)n3)nc2)CC1 [Example 106, 4-(1,6-Dimethyl-3-propan-2-ylthieno[3,2-c]pyrazol-5-yl)-N-[5-(4-ethylpiperazin-1-yl)pyridin-2-yl]-5-fluoropyrimidin-2-amine]
20 to 200 nM	–	Cc1nc2cc(-c3nc(Nc4cccnn4)ncc3F)sc2n1C(C)C [Example 107, N-(5-Fluoro-4-(3-isopropyl-2-methyl-3H-thieno[2,3-d]imidazol-5-yl)pyrimidin-2-yl)pyridazin-3-amine]
200 to 2000 nM	–	CN1CCC(c2ccc(Nc3ncc(F)c(-c4cc5c(=O)n(C)nc(C67CC(F)(C6)C7)c5s4)n3)nc2)CC1 [Example 110, 2-(5-Fluoro-2-((5-(1-methylpiperidin-4-yl)pyridin-2-yl)amino)pyrimidin-4-yl)-7-(3-fluorobicyclo[1.1.1]pentan-1-yl)-5-methylthieno[2,3-d]pyridazin-4(5H)-one]
200 to 2000 nM	–	CCN1CCN(c2cccc(Nc3ncc(F)c(-c4sc5c(nc(C)n5C(C)C)c4C)n3)n2)CC1 [Example 113, 4-(2,6-Dimethyl-3-propan-2-ylthieno[2,3-d]imidazol-5-yl)-N-[6-(4-ethylpiperazin-1-yl)pyridin-2-yl]-5-fluoropyrimidin-2-amine]
≤ 20 nM	–	CCN1CCN(C(C)c2ccc(Nc3ncc(F)c(-c4cc5nc(C)n(C(C)C)c5s4)n3)nc2)CC1 (stereo not drawn) [Example 116, N-[5-[1-(4-Ethylpiperazin-1-yl)ethyl]pyridin-2-yl]-5-fluoro-4-(2-methyl-3-propan-2-ylthieno[2,3-d]imidazol-5-yl)pyrimidin-2-amine]
≤ 20 nM	–	Cc1nc2cc(-c3nc(Nc4ccc(C5C(=O)N(C)CCN5C)cn4)ncc3F)sc2n1C(C)C (stereo not drawn) [Example 117, 3-[6-[[5-Fluoro-4-(2-methyl-3-propan-2-ylthieno[2,3-d]imidazol-5-yl)pyrimidin-2-yl]amino]pyridin-3-yl]-1,4-dimethylpiperazin-2-one]
200 to 2000 nM	–	CCN1CCN(c2ccnc(Nc3ncc(F)c(-c4sc5c(nc(C)n5C(C)C)c4C)n3)c2)CC1 [Example 119, 4-(2,6-Dimethyl-3-propan-2-ylthieno[2,3-d]imidazol-5-yl)-N-[4-(4-ethylpiperazin-1-yl)pyridin-2-yl]-5-fluoropyrimidin-2-amine]
20 to 200 nM	–	CCN1CCN(c2ccc(Nc3ncc(F)c(-c4sc5c(C(C)C)ccnc5c4C#N)n3)nc2)CC1 [Example 122, 2-(2-((5-(4-Ethylpiperazin-1-yl)pyridin-2-yl)amino)-5-fluoropyrimidin-4-yl)-7-isopropylthieno[3,2-b]pyridine-3-carbonitrile]
20 to 200 nM	–	COc1cnc(Nc2ccc(C3CCN(C)CC3)cn2)nc1-c1cc2nc(C)n(C(C)C)c2s1 [Example 127, 4-(3-Isopropyl-2-methyl-3H-thieno[2,3-d]imidazol-5-yl)-5-methoxy-N-(5-(1-methylpiperidin-4-yl)pyridin-2-yl)pyrimidin-2-amine]
